From publication PMC8962522, “Direct interaction of TrkA/CD44v3 is essential for NGF-promoted aggressiveness of breast cancer cells” (Journal of Experimental & Clinical Cancer Research : CR, 2022)

Columns and labels:
TrkA phosphorylation = test: Western blot of TrkA phosphorylation; format: cell-based
From the text: To further elucidate the mechanism of action of CD44v3 mimetic peptide 4, we studied its effect on the TrkA signaling pathway. First, we performed western blot analysis to determine the effect of mimetic peptide 4 on TrkA phosphorylation (Fig. 5A). […] Therefore, we performed acceptor (photo) bleaching (AB)-FRET to examine the effect of CD44v3 mimetic peptide 4 on NGF-induced RhoA activity in MDA-MB-231 cells transfected with a RhoA FRET biosensor [18] (Fig. 5B). […] Additionally, to confirm that this effect was independent of TrkA phosphorylation, we measured RhoA activation in MDA-MB-231 cells expressing dead TrkA kinase, which cannot be phosphorylated (Fig. 5D). […] Furthermore, a similar decrease in RhoA activation was obtained using the TrkA-H112A mutation, which also prevents the formation of the TrkA/CD44v3 complex in the absence or presence of the TrkA kinase inhibitor k252A (Supplementary Fig. 11B & C, Supplementary Video 1 & 2).
Fig. 5 CD44v3 is implicated in the phospho-TrkA-independent activation of RhoA GTPase. Phosphorylation of TrkA was measured in the presence of a scramble peptide or CD44v3 mimetic peptide 4 (P4) in the presence or absence of NGF (A). Schematic representation of the Rho biosensor; (B). […] Phosphorylation of TrkA and downstream Akt in wild-type MDA-MB-231 and MDA-MB-231 cells expressing kinase-dead TrkA, as determined by western blotting (D). […]

MDA-MB-231 cells = test: Clonogenicity assay, MDA-MB-231; format: cell-based; details: peptide 50 ng/mL, 2% FBS; versus control cells or scramble peptide; siCD44v3: 10 days after siRNA transfection
Experimental: The clonogenicity assay was performed to assess cell survival. MDA-MB-231 cells (250 cells/mL) were seeded into 6 plate wells (2% FBS medium; 2 mL/well). When the cells attached (within 3 h), they were treated with the peptide (scramble or P4; 50 ng/mL) or no peptide (control) and incubated for 24 h. The next day, a second-round treatment was performed. Three days later, the medium was changed, and the cells were incubated for another 5 days. After 10 days of culture, the medium was removed, and the cells were washed twice (PBS 1×), fixed (4% PAF for 30 min at RT), colored (violet crystal 2%; 30 min; RT) and washed twice (distilled water). Representative pictures of one well were taken, and the colonies were counted.
Therefore, in this study, we assessed TrkA binding to CD44v3 in MDA-MB-231 cells, which were used as TNBC model cells. […] Therefore, we evaluated the physiological consequences of TrkA/CD44v3 complex dissociation induced by CD44v3 mimetic peptide 4 on MDA-MB-231 cell phenotypes (Fig. 4). […] We first determined the effect of CD44v3 on the length-to-width (l/w) ratio of the cells (elongation factor) (Fig. 4C-E). […]
Fig. 4 CD44v3 mimetic peptide 4 inhibits MDA-MB-231 breast cancer cell growth and migration/invasion. Clonogenic MDA-MB-231 cell growth was measured after 10 days in the presence of a scramble peptide (SP) or CD44v3 mimetic peptide (P4) (A, B). […]

## IDDDEDFISST [Peptide 4, mimetic peptide 4 (…) corresponding to the C-terminal region of CD44v3]
TrkA phosphorylation
  effect on NGF-induced TrkA phosphorylation: did not inhibit TrkA phosphorylation induced by NGF
MDA-MB-231 cells
  effect on clonogenic growth of MDA-MB-231 cells: reduced the proportion of MDA-MB-231 colony forming units by two-thirds
